Assay results from PMC7485941 (Clinical and Translational Science, 2020).
“Also recorded” adds a separate entry of the source.

Legend:
QTc interval = details: therapeutic and supratherapeutic concentrations; cited from earlier work
healthy subjects [1] = assay: Safety and tolerability; format: in vivo, human; details: for overall percentage of TEAEs: part B
healthy subjects [2] = assay: Concentration-QTc; format: in vivo, human; details: for Predicted (90% CI) ΔΔQTcF at geometric mean peak concentration: PK/QTc population
healthy subjects [3] = assay: 12-lead ECG by time-point and categorical outlier analysis in the TQT study; format: in vivo, human
[4] = Plasma pharmacokinetics in the TQT study; details: for Cmax: Geometric mean Cmax (90% CI), PK/QTc population
hERG channels = assay: In vitro hERG ion channel assay; format: cell-based, human; details: 160 mg twice daily
[5] = cited from earlier work

For `CC#CC(=O)N1CCC[C@H]1c1nc(-c2ccc(C(=O)Nc3ccccn3)cc2)c2c(N)nccn12` [acalabrutinib], the “effect on QTc interval” value (QTc interval) is listed as “not to prolong the QTc interval”.

With `COc1c(N2C[C@@H]3CCCN[C@@H]3C2)c(F)cc2c(=O)c(C(=O)O)cn(C3CC3)c12` [Moxifloxacin, moxifloxacin, reference compound] the “overall percentage of TEAEs” value (healthy subjects [1]; moxifloxacin 400 mg) was 22.2%, the “estimated population slope of the C-QTc relationship” value (healthy subjects [2]; moxifloxacin) was 0.005 msec per ng/mL and the “intercept of the C-QTc relationship” value (healthy subjects [2]; moxifloxacin) was 3.1 ms. For the same compound, the “peak effect, mean ΔΔQTcF” value (healthy subjects [3]; moxifloxacin 400 mg, at 2.5 hours postdose) was 12.9 ms and the “mean ΔΔQTcF” value (healthy subjects [3]; moxifloxacin 400 mg, between 1 and 4 hours postdose) was “above 10 msec”.

In the case of `C=CC(=O)N1CCC([C@@H]2CCNc3c(C(N)=O)c(-c4ccc(Oc5ccccc5)cc4)nn32)CC1` [Zanubrutinib], the “SAEs or grade 3 or higher AEs related to administration” value (healthy subjects [1]; part A, 480 mg single dose, n = 6) was “no SAEs or grade 3 or higher AEs”, the “overall percentage of TEAEs” value (healthy subjects [1]; zanubrutinib 160 mg) was 10.0% and the “overall percentage of TEAEs” value (healthy subjects [1]; zanubrutinib 480 mg) was 13.3%. The “Predicted (90% CI) ΔΔQTcF at geometric mean peak concentration” value (healthy subjects [2]; 160 mg, n = 27) was −3.16 (−4.51 to −1.81) msec, the “Predicted (90% CI) ΔΔQTcF at geometric mean peak concentration” value (healthy subjects [2]; 480 mg, n = 28) was −3.38 (−4.86 to −1.89) msec and the “highest observed plasma concentration in the TQT study” value ([4]; concentration range included in C-QTc modeling) was “≈ 800 ng/mL”. The Cmax ([4]; human, in vivo, 160 mg, n = 27) was 215 ng/mL, the Cmax ([4]; human, in vivo, 480 mg, n = 28) was 401 ng/mL and the half-life ([4]; human, in vivo, 480 mg, mean t ½, 480-mg dose, range over part A and part B) was 8.1 to 11 h. For the same compound, the Tmax ([4]; human, in vivo, 480 mg, median Tmax, range over part A and part B, 160 and 480 mg, postdose) was 1.5 to 2.8 h, the “Mean placebo-corrected change from baseline heart rate (ΔΔHR), magnitude (±)” value (healthy subjects [3]; all postdose time points, 160 and 480 mg) was less than 5 bpm and the “Mean ΔΔPR” value (healthy subjects [3]; all time points after dosing with zanubrutinib) was less than 5 ms. The “upper bound of the 90% CI of ΔΔQTcF” value (healthy subjects [3]; any postdose time point, both zanubrutinib doses) was no more than 1.2 ms, the “participants with HR outlier values” (healthy subjects [3]; categorical outlier analysis) was “no participant with HR outlier values” and the “participants with outlier QTcF values (> 450 msec)” value (healthy subjects [3]; categorical outlier analysis, zanubrutinib 160 and 480 mg) was “No participants had outlier QTcF values; also recorded: no participant had outlier values”. For the same compound, the “participants with outlier ΔQTcF values (> 30 msec)” value (healthy subjects [3]; categorical outlier analysis, zanubrutinib groups) was “No participant had outlier ΔQTcF values”, the “effect on QTc interval” value (healthy subjects [3]; single 160-mg or 480-mg dose) was “did not prolong the QTc interval” and the “exposure margin, hERG IC50 over clinical steady-state unbound Cmax” value (hERG channels) was ~ 217 fold. The “mean Cmax” value ([5]; 160 mg, patients with B-cell malignancy) was 346 ng/mL, the “mean terminal elimination half-life (t ½)” value ([5]; oral administration) was 2 to 4 h and the “clinical steady-state unbound Cmax” value ([5]; recommended phase III dose of 160 mg twice daily, no reference given) was 42 nM.
